Source: patent publication US4234724A, “Cephalosporin analogues and processes for the preparation thereof” (Fujisawa Pharmaceutical Company, Limited, priority 1977, dated 1980)
≈ marks a conversion by molar mass, not a printed value.

Assays:
Test in all cases: In vitro antibacterial activity, two-fold agar-plate dilution method
Type in all cases: cell-based
Pr. mirabilis 18 = conditions: Proteus mirabilis, HI-agar, 37° C., 20 hours, 10^6 viable cells per ml
Procedure: (§1) In vitro antibacterial activity was determined by the two-fold agar-plate dilution method as described below.
(§2) One loopful of an overnight culture of each test strain in Trypticase-soy broth (10^6 viable cells per ml.) was streaked on heart infusion agar (HI-agar) containing graded concentrations of antibiotics, and the minimum inhibitory concentration (MIC) was expressed in terms of μg/ml after incubation at 37° C. for 20 hours.

E. coli 31 = conditions: Escherichia coli, HI-agar, 37° C., 20 hours, 10^6 viable cells per ml
Procedure: as §1, §2

Kl. pneumoniae 20 = conditions: Klebsiella pneumoniae, HI-agar, 37° C., 20 hours, 10^6 viable cells per ml
Procedure: as §1, §2

Pr. vulgaris 2 = conditions: Proteus vulgaris, HI-agar, 37° C., 20 hours, 10^6 viable cells per ml
Procedure: as §1, §2

SMILES | MIC (Pr. mirabilis 18) [µg/mL] | MIC (E. coli 31) [µg/mL] | MIC (Kl. pneumoniae 20) [µg/mL] | MIC (Pr. vulgaris 2) [µg/mL]
CON=C(C(=O)NC1C(=O)N2C(C(=O)O)=CCOC12)c1nccc(N)n1 (stereo not drawn) [(5), 7β-[2-Methoxyimino-2-(4-aminopyrimidin-2-yl)acetamido]-1-oxadethia-3-cephem-4-carboxylic acid (syn isomer)] | 0.05 (≈ 0.138 µM) | 0.025 (≈ 0.069 µM) | 0.05 (≈ 0.138 µM) | 0.1 (≈ 0.276 µM)
CC(C)ON=C(C(=O)NC1C(=O)N2C(C(=O)O)=CCOC12)c1csc(N)n1 (stereo not drawn) [(3), 7β-[2-Isopropoxyimino-2-(2-aminothiazol-4-yl)acetamido]-1-oxadethia-3-cephem-4-carboxylic acid (syn isomer)] | 0.1 (≈ 0.253 µM) | 0.2 (≈ 0.506 µM) | 0.05 (≈ 0.126 µM) | 0.1 (≈ 0.253 µM)
CCON=C(C(=O)NC1C(=O)N2C(C(=O)O)=CCOC12)c1csc(N)n1 (stereo not drawn) [(2), 7β-[2-Ethoxyimino-2-(2-aminothiazol-4-yl)acetamido]-1-oxadethia-3-cephem-4-carboxylic acid (syn isomer)] | 0.05 (≈ 0.131 µM) | 0.05 (≈ 0.131 µM) | 0.025 (≈ 0.0656 µM) | 0.05 (≈ 0.131 µM)
CON=C(C(=O)NC1C(=O)N2C(C(=O)O)=CCOC12)c1nsc(N)n1 (stereo not drawn) [(4), 7β-[2-Methoxyimino-2-(5-amino-1,2,4-thiadiazol-3-yl)acetamido]-1-oxadethia-3-cephem-4-carboxylic acid (syn isomer)] | 0.1 (≈ 0.271 µM) | 0.025 (≈ 0.0679 µM) | 0.05 (≈ 0.136 µM) | 0.1 (≈ 0.271 µM)
CON=C(C(=O)NC1C(=O)N2C(C(=O)O)=CCOC12)c1csc(N)n1 (stereo not drawn) [(1), 7β-[2-Methoxyimino-2-(2-aminothiazol-4-yl)acetamid]-1-oxadethia-3-cephem-4-carboxylic acid (syn isomer)] | 0.05 (≈ 0.136 µM) | 0.05 (≈ 0.136 µM) | 0.1 (≈ 0.272 µM) | 0.2 (≈ 0.544 µM)
